Patent publication US11427546B2, “Form of isoquinoline sulfonamide” (D. WESTERN THERAPEUTICS INSTITUTE, INC., priority 2018, dated 2022)
“Also recorded” adds a separate entry of the source. Structures can show the parent of a compound that is named as a salt.

What was measured:
Type in all cases: physicochemical
[1] = Water solubility comparative test; conditions: for transparency of aqueous solution by visual observation: about 100 mg in 2 mL purified water (5% aqueous solution), room temperature; for precipitate in aqueous solution: about 100 mg in 2 mL purified water, 1 day later
Procedure: Water Solubility Comparative Test
About 100 mg of each of the compound (1) of Reference Example 1 and the crystal of the compound (2) of the present invention was weighed out in a glass vial, 2 mL of purified water was added, and the mixture was vigorously shaken in an airtight state. After being allowed to stand until the liquid surface fluctuation ceased, the aqueous solution was examined for transparency by visual observation at room temperature.

[2] = Moisture absorption stability comparative test in the ambient atmosphere; conditions: ambient atmosphere 25° C.-28° C./67%-83% RH; for appearance (moisture absorption): Day 7
Procedure: Moisture Absorption Stability Comparative Test in the Ambient Atmosphere
About 100 mg of each of the compound (1) obtained in Reference Example 1 and the compound (2) of the present invention obtained in an Example was weighed out in a plastic container and allowed to stand in the ambient atmosphere (25° C.-28° C./67%-83% RH), while minimizing the influence of wind pressure, foreign matter entry, and the like from above and all directions, for 7 days. On Day 0 and Day 7, samples were weighed and examined for appearance.

[3] = Heat stability comparative test; conditions: 70° C., airtight glass vial
Procedure: Heat Stability Comparative Test
About 20 mg of each of the compound (1) of Reference Example 1 and the crystal of the compound (2) of the present invention obtained in an Example was weighed out in a glass vial and stored in a thermostat chamber kept at 70° C. in an airtight state (NA-100N Incubator from NISSIN) for 14 days. On Day 0, Day 7, and Day 14, compound (1) and the compound (2) of the present invention were examined for appearance and purity (HPLC).

[4] = Moisture absorption stability comparative test at 50° C./70% RH
Procedure: Moisture Absorption Stability Comparative Test at 50° C./70% RH
A 100-mg weight of each of the crystals of compounds (3) and (4) obtained in Reference Examples 2 and 3, respectively, and the compound (2) of the present invention obtained in an Example was weighed out in a plastic container and allowed to stand under 50° C./70% RH conditions in a thermo-hygrostat chamber (IH400 from Yamato Scientific Co., Ltd.).

precipitate in aqueous solution [1] | appearance (moisture absorption) [2] | change (appearance, weight) after prolonged standing ([4]; after 3 days of standing) | Compound | transparency of aqueous solution by visual observation ([1]; monohydrochloride) | appearance / property (heat stability) ([3]; Day 7, monohydrochloride) | transparency of aqueous solution by visual observation [1] | appearance change due to moisture absorption ([4]; after 1 hour of standing) | weight increase ([4]; after 1 hour of standing, 100 mg solid) | percent increase in weight ([2]; Day 7, about 100 mg solid) | appearance and purity (HPLC) (heat stability) ([3]; Day 14)
a precipitate was found | evident moisture absorption phenomenon |  | C[C@H](CNC[C@@](C)(O)c1ccccc1)NS(=O)(=O)c1ccc2cnccc2c1.Cl [compound (1), N—[(R)-1-{(S)-2-hydroxy-2-phenylpropylamino}propan-2-yl]isoquinoline-6-sulfonamide monohydrochloride, reference compound] | translucent; also recorded: translucent and had not dissolved completely | marked property degradation; also recorded: unstable with an evident change in appearance |  |  |  |  | 
no precipitate was found | no weight gain or appearance change | no change was observed | C[C@H](CNC[C@@](C)(O)c1ccccc1)NS(=O)(=O)c1ccc2cnccc2c1 [compound (2), N—[(R)-1-{(S)-2-hydroxy-2-phenylpropylamino}propan-2-yl]isoquinoline-6-sulfonamide dihydrochloride anhydride] |  |  | extremely clear, showing complete dissolution; also recorded: colorless and clear | no appearance change | no appearance change nor weight gain; also recorded: did not at all exhibit any weight change | did not at all exhibit any weight change; also recorded: no weight gain | stable, with no change in appearance nor decomposition; also recorded: stable
 |  |  | C[C@H](CNCCc1ccccc1)NS(=O)(=O)c1ccc2cnccc2c1.Cl.Cl [compound (3), (R)—N-{1-(phenetylamino)propan-2-yl}isoquinoline-6-sulfonamide dihydrochloride, reference compound] |  |  |  | marked appearance change due to moisture absorption |  |  | 
 |  |  | C[C@H](CNC[C@H](C)c1ccccc1)NS(=O)(=O)c1ccc2cnccc2c1.Cl.Cl [compound (4), N—[(R)-1-{(R)-2-phenyipropylamino}propan-2-yl]isoquinoline-6-sulfonamide dihydrochloride, reference compound] |  |  |  | marked appearance change due to moisture absorption |  |  | 
